Measurements taken from ChEMBL document CHEMBL1201862, “PubChem BioAssay data set” (2004).
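Growth conditions: 96-well plates. Treatment: test compound, 48 hours, 5 concentrations. Analysis: linear interpolation between bracketing concentrations; unreached endpoints set to highest concentration. Here, GI50 denotes the concentration required for 50% inhibition of growth.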 Activity calls are given as the source filed them. Rule as the data show it: active = GI50 up to about 1.1 µM and inactive = higher.

What was measured:
Experiment in all cases: NCI-60 cell line screen, 48 h
[1] = system: BT-549
[2] = system: CAKI-1
[3] = system: HT-29
[4] = system: MDA-MB-435
[5] = system: RXF 393
[6] = system: Malme-3M
[7] = system: OVCAR-8
[8] = system: Hs-578T
[9] = system: UO-31
[10] = system: SF-268
[11] = system: 786-0
[12] = system: MDA-N
[13] = system: MCF7
[14] = system: TK-10
[15] = system: SN12C
[16] = system: OVCAR-5
[17] = system: SNB-19
[18] = system: COLO 205
[19] = system: SR
[20] = system: ACHN
[21] = system: SNB-75
[22] = system: NCI-H460
[23] = system: HCT-116
[24] = system: EKVX
[25] = system: RPMI-8226
[26] = system: HOP-62
[27] = system: UACC-62
[28] = system: K562
[29] = system: A498
[30] = system: NCI-H226
[31] = system: LOX IMVI
[32] = system: NCI-H23
[33] = system: MOLT-4
[34] = system: SF-539
[35] = system: HCC 2998
[36] = system: MDA-MB-231
[37] = system: SK-OV-3
[38] = system: HOP-92
[39] = system: T47D
[40] = system: DU-145
[41] = system: IGROV-1
[42] = system: HL-60
[43] = system: OVCAR-4
[44] = system: OVCAR-3
[45] = system: SK-MEL-28
[46] = system: CCRF-CEM
[47] = system: UACC-257
[48] = system: PC-3
[49] = system: NCI-H522
[50] = system: NCI/ADR-RES
[51] = system: M14
[52] = system: KM12
[53] = system: SW-620
[54] = system: U-251
[55] = system: SF-295
[56] = system: SK-MEL-5
[57] = system: A549
[58] = system: HCT-15
[59] = system: SK-MEL-2

With `O=C(O)c1cc(O)c2c(c1)C([C@@H]1c3cccc(O)c3C(=O)c3c(O)cc(C(=O)O)cc31)c1cccc(O)c1C2=O` (some centres undefined) the GI50 [1] was 51.1 µM (inactive), the GI50 [2] was > 100 µM (inactive) and the GI50 [3] was 96.2 µM (inactive). For the same compound, the GI50 [4] was 24.6 µM (inactive), the GI50 [5] was 28.2 µM (inactive) and the GI50 [6] was 23.7 µM (inactive). For the same compound, the GI50 [7] was 33.4 µM (inactive), the GI50 [8] was 24.9 µM (inactive) and the GI50 [9] was > 100 µM (inactive). For the same compound, the GI50 [10] was 31.4 µM (inactive), the GI50 [11] was 51.5 µM (inactive) and the GI50 [12] was 20.3 µM (inactive). The GI50 [13] was 37 µM (inactive), the GI50 [14] was 99.1 µM (inactive) and the GI50 [15] was 34.7 µM (inactive). The GI50 [16] was > 100 µM (inactive), the GI50 [17] was 57 µM (inactive) and the GI50 [18] was > 100 µM (inactive). The GI50 [19] was 39.3 µM (inactive), the GI50 [20] was 81.5 µM (inactive) and the GI50 [21] was 25.3 µM (inactive). For the same compound, the GI50 [22] was > 100 µM (inactive), the GI50 [23] was 20.4 µM (inactive) and the GI50 [24] was 37.2 µM (inactive). For the same compound, the GI50 [25] was 32.9 µM (inactive), the GI50 [26] was > 10 µM (inactive) and the GI50 [27] was 31 µM (inactive). For the same compound, the GI50 [28] was 23.8 µM (inactive), the GI50 [29] was 22.7 µM (inactive) and the GI50 [30] was 33.7 µM (inactive). The GI50 [31] was 15.8 µM (inactive), the GI50 [32] was 30.4 µM (inactive) and the GI50 [33] was 20.7 µM (inactive). The GI50 [34] was 19.5 µM (inactive), the GI50 [35] was 47.4 µM (inactive) and the GI50 [36] was 23.5 µM (inactive). The GI50 [37] was > 100 µM (inactive), the GI50 [38] was 23.2 µM (inactive) and the GI50 [39] was 59.6 µM (inactive). The GI50 [40] was > 100 µM (inactive), the GI50 [41] was 22.9 µM (inactive) and the GI50 [42] was 29.9 µM (inactive). The GI50 [43] was > 100 µM (inactive), the GI50 [44] was 66.5 µM (inactive) and the GI50 [45] was 33.2 µM (inactive). The GI50 [46] was 30.5 µM (inactive), the GI50 [47] was 35.5 µM (inactive) and the GI50 [48] was 36.1 µM (inactive). For the same compound, the GI50 [49] was 19.7 µM (inactive), the GI50 [50] was 43.8 µM (inactive) and the GI50 [51] was > 10 µM (inactive). For the same compound, the GI50 [52] was 20.5 µM (inactive), the GI50 [53] was 35.4 µM (inactive) and the GI50 [54] was 25.4 µM (inactive). For the same compound, the GI50 [55] was 34.7 µM (inactive), the GI50 [56] was 17.6 µM (inactive) and the GI50 [57] was > 100 µM (inactive).

With `N=C(N)c1ccc(/N=N\c2c(O)ccc3c2[nH]c2ccccc23)cc1` the GI50 [1] was 49.8 µM (inactive), the GI50 [2] was > 50.8 µM (inactive) and the GI50 [3] was 19.6 µM (inactive). The GI50 [4] was 3.39 µM (inactive), the GI50 [5] was 53.1 µM (inactive) and the GI50 [6] was > 47.3 µM (inactive). For the same compound, the GI50 [7] was 2.46 µM (inactive), the GI50 [8] was 63.8 µM (inactive) and the GI50 [9] was 35.3 µM (inactive). The GI50 [10] was 19.5 µM (inactive), the GI50 [11] was 1.69 µM (inactive) and the GI50 [58] was 39.1 µM. The GI50 [12] was 6.3 µM (inactive), the GI50 [13] was 1.75 µM (inactive) and the GI50 [14] was 45.5 µM (inactive). The GI50 [15] was 16.4 µM (inactive), the GI50 [16] was 41.5 µM (inactive) and the GI50 [17] was 2.47 µM (inactive). The GI50 [18] was 21.7 µM (inactive), the GI50 [19] was 2.54 µM (inactive) and the GI50 [20] was 41.6 µM (inactive). For the same compound, the GI50 [21] was 8.38 µM (inactive), the GI50 [22] was 2.76 µM (inactive) and the GI50 [23] was 3.31 µM (inactive). For the same compound, the GI50 [24] was > 59.6 µM (inactive), the GI50 [25] was 2.19 µM (inactive) and the GI50 [26] was 13.6 µM (inactive). The GI50 [27] was 54.2 µM (inactive), the GI50 [28] was 1.63 µM (inactive) and the GI50 [29] was 77.3 µM (inactive). For the same compound, the GI50 [30] was 40.5 µM (inactive), the GI50 [31] was 2.24 µM (inactive) and the GI50 [32] was 10.2 µM (inactive). The GI50 [33] was 2.23 µM (inactive), the GI50 [34] was > 49.5 µM (inactive) and the GI50 [35] was 1.76 µM (inactive). The GI50 [36] was 2.09 µM (inactive), the GI50 [37] was 25.2 µM (inactive) and the GI50 [38] was 98.6 µM (inactive). The GI50 [39] was 2.43 µM (inactive), the GI50 [40] was 34.6 µM (inactive) and the GI50 [41] was 49.8 µM (inactive). For the same compound, the GI50 [42] was 1.15 µM (inactive), the GI50 [43] was 6.14 µM (inactive) and the GI50 [44] was 2.1 µM (inactive). For the same compound, the GI50 [59] was 20.3 µM (inactive), the GI50 [45] was 18.8 µM (inactive) and the GI50 [46] was 0.25 µM (active). The GI50 [47] was 45.4 µM (inactive), the GI50 [48] was 9.73 µM (inactive) and the GI50 [49] was > 53.2 µM (inactive). The GI50 [50] was 58.1 µM (inactive), the GI50 [51] was 36.1 µM (inactive) and the GI50 [52] was 1.85 µM (inactive). For the same compound, the GI50 [53] was 2.32 µM (inactive), the GI50 [54] was 1.95 µM (inactive) and the GI50 [55] was > 51.5 µM (inactive). For the same compound, the GI50 [56] was 37.8 µM (inactive) and the GI50 [57] was 2.34 µM (inactive).

`O=C(Nc1c(C(F)(F)F)cc(-c2ccccc2)[nH]c1=O)N1CCOCC1` was tested, and the GI50 [1] was > 100 µM (inactive), the GI50 [2] was > 100 µM (inactive) and the GI50 [3] was > 100 µM (inactive). For the same compound, the GI50 [4] was > 100 µM (inactive), the GI50 [5] was > 100 µM (inactive) and the GI50 [6] was > 100 µM (inactive). For the same compound, the GI50 [7] was > 100 µM (inactive), the GI50 [8] was > 100 µM (inactive) and the GI50 [9] was > 100 µM (inactive). For the same compound, the GI50 [10] was > 100 µM (inactive), the GI50 [11] was > 100 µM (inactive) and the GI50 [58] was > 100 µM. The GI50 [12] was 77.1 µM (inactive), the GI50 [13] was > 100 µM (inactive) and the GI50 [14] was > 100 µM (inactive). The GI50 [15] was > 100 µM (inactive), the GI50 [16] was > 100 µM (inactive) and the GI50 [17] was > 100 µM (inactive). For the same compound, the GI50 [18] was > 100 µM (inactive), the GI50 [19] was 54.3 µM (inactive) and the GI50 [20] was > 100 µM (inactive). For the same compound, the GI50 [21] was > 100 µM (inactive), the GI50 [22] was > 100 µM (inactive) and the GI50 [23] was > 100 µM (inactive). For the same compound, the GI50 [24] was 40.2 µM (inactive), the GI50 [25] was 26.9 µM (inactive) and the GI50 [26] was > 100 µM (inactive). For the same compound, the GI50 [27] was > 100 µM (inactive), the GI50 [28] was > 100 µM (inactive) and the GI50 [29] was > 100 µM (inactive). The GI50 [30] was > 100 µM (inactive), the GI50 [31] was > 100 µM (inactive) and the GI50 [32] was > 100 µM (inactive). The GI50 [33] was > 100 µM (inactive), the GI50 [35] was > 100 µM (inactive) and the GI50 [36] was > 100 µM (inactive). For the same compound, the GI50 [37] was > 100 µM (inactive), the GI50 [38] was 58.9 µM (inactive) and the GI50 [39] was > 100 µM (inactive). For the same compound, the GI50 [40] was > 100 µM (inactive), the GI50 [41] was > 100 µM (inactive) and the GI50 [42] was 26.9 µM (inactive). The GI50 [43] was 47.8 µM (inactive), the GI50 [44] was 70.8 µM (inactive) and the GI50 [59] was > 100 µM (inactive). The GI50 [45] was > 100 µM (inactive), the GI50 [46] was 46.3 µM (inactive) and the GI50 [47] was 78.3 µM (inactive). For the same compound, the GI50 [48] was > 100 µM (inactive), the GI50 [49] was 89.1 µM (inactive) and the GI50 [50] was > 100 µM (inactive). For the same compound, the GI50 [51] was > 100 µM (inactive), the GI50 [52] was > 100 µM (inactive) and the GI50 [53] was > 100 µM (inactive). The GI50 [54] was 78.5 µM (inactive), the GI50 [55] was 62.1 µM (inactive) and the GI50 [56] was 38.1 µM (inactive). For the same compound, the GI50 [57] was 79.1 µM (inactive).
